Measured values: PubChem BioAssay AID1845209 (Molecular Pharmacology Branch, DTP, NCI, 2023)

Tested on: NCI-H211 tumor spheroids, viability percent test/control
Assay: Anticancer human tumor NCI-H211 cell line growth inhibition;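 note: spheroids exposed to agents for seven days before readout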
Details: spheroids with HUVEC and MSC; for IC50: curve of first compound; for viability, T/C: stronger effect = lower value
Summary of the method: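 Complex spheroids of malignant cells with endothelial cells and mesenchymal stem cells; agents alone or combined, from near clinical Cmax (or 10 microM if unknown) down in half-log steps, 0.25% DMSO final.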

[1] = second compound 0.003 µM, first compound 0.0316 µM
[2] = second compound 0.003 µM, first compound 0.1 µM
[3] = second compound 0.003 µM, first compound 0.316 µM
[4] = second compound 0.003 µM, first compound 1 µM
[5] = second compound 0.003 µM, first compound 3.16 µM
[6] = second compound 0.003 µM, first compound 10 µM
[7] = second compound 0.00949 µM, first compound 0.0316 µM
[8] = second compound 0.00949 µM, first compound 0.1 µM
[9] = second compound 0.00949 µM, first compound 0.316 µM
[10] = second compound 0.00949 µM, first compound 1 µM
[11] = second compound 0.00949 µM, first compound 3.16 µM
[12] = second compound 0.00949 µM, first compound 10 µM
[13] = second compound 0.03 µM, first compound 0.0316 µM
[14] = second compound 0.03 µM, first compound 0.1 µM
[15] = second compound 0.03 µM, first compound 0.316 µM
[16] = second compound 0.03 µM, first compound 1 µM
[17] = second compound 0.03 µM, first compound 3.16 µM
[18] = second compound 0.03 µM, first compound 10 µM
[19] = second compound 0.0949 µM, first compound 0.0316 µM
[20] = second compound 0.0949 µM, first compound 0.1 µM
[21] = second compound 0.0949 µM, first compound 0.316 µM
[22] = second compound 0.0949 µM, first compound 1 µM
[23] = second compound 0.0949 µM, first compound 3.16 µM
[24] = second compound 0.0949 µM, first compound 10 µM
[25] = second compound 0.3 µM, first compound 0.0316 µM
[26] = second compound 0.3 µM, first compound 0.1 µM
[27] = second compound 0.3 µM, first compound 0.316 µM
[28] = second compound 0.3 µM, first compound 1 µM
[29] = second compound 0.3 µM, first compound 3.16 µM
[30] = second compound 0.3 µM, first compound 10 µM

## CC(C)n1c(=O)n(C)c2cnc3cc(F)c(-c4ccc(OCCCN5CCCCC5)nc4)cc3c21 + CC[C@@]1(O)C(=O)OCc2c1cc1n(c2=O)Cc2cc3c(CN(C)C)c(O)ccc3nc2-1
Second compound 0.003 µM
  IC50: < 31.6 nM
Second compound 0.00949 µM
  IC50: < 31.6 nM
Second compound 0.03 µM
  IC50: < 31.6 nM
Second compound 0.0949 µM
  IC50: < 31.6 nM
Second compound 0.3 µM
  IC50: < 31.6 nM
[1]
  viability, T/C: 19.9%
[2]
  viability, T/C: 22%
[3]
  viability, T/C: 20%
[4]
  viability, T/C: 18.8%
[5]
  viability, T/C: 10.9%
[6]
  viability, T/C: 2.91%
[7]
  viability, T/C: 0.98%
[8]
  viability, T/C: 0.97%
[9]
  viability, T/C: 1.23%
[10]
  viability, T/C: 1.31%
[11]
  viability, T/C: 1.09%
[12]
  viability, T/C: 0.52%
[13]
  viability, T/C: 1.27%
[14]
  viability, T/C: 0.81%
[15]
  viability, T/C: 0.82%
[16]
  viability, T/C: 0.85%
[17]
  viability, T/C: 0.81%
[18]
  viability, T/C: 0.5%
[19]
  viability, T/C: 0.98%
[20]
  viability, T/C: 1.01%
[21]
  viability, T/C: 0.97%
[22]
  viability, T/C: 0.94%
[23]
  viability, T/C: 1%
[24]
  viability, T/C: 0.57%
[25]
  viability, T/C: 1.06%
[26]
  viability, T/C: 0.95%
[27]
  viability, T/C: 0.85%
[28]
  viability, T/C: 1.2%
[29]
  viability, T/C: 1.02%
[30]
  viability, T/C: 0.73%

## CC1COCCN1c1cc(-c2ccnn2C)c2ccnc(-c3ccn[nH]3)c2n1 (stereo not given) + CC[C@@]1(O)C(=O)OCc2c1cc1n(c2=O)Cc2cc3c(CN(C)C)c(O)ccc3nc2-1
Second compound 0.003 µM
  IC50: < 31.6 nM
Second compound 0.00949 µM
  IC50: < 31.6 nM
Second compound 0.03 µM
  IC50: < 31.6 nM
Second compound 0.0949 µM
  IC50: < 31.6 nM
Second compound 0.3 µM
  IC50: < 31.6 nM
[1]
  viability, T/C: 1.02%
[2]
  viability, T/C: 1.19%
[3]
  viability, T/C: 1.59%
[4]
  viability, T/C: 0.56%
[5]
  viability, T/C: 0.45%
[6]
  viability, T/C: 0.65%
[7]
  viability, T/C: 1.86%
[8]
  viability, T/C: 0.7%
[9]
  viability, T/C: 1.15%
[10]
  viability, T/C: 0.42%
[11]
  viability, T/C: 0.4%
[12]
  viability, T/C: 0.58%
[13]
  viability, T/C: 1.1%
[14]
  viability, T/C: 1.24%
[15]
  viability, T/C: 0.67%
[16]
  viability, T/C: 1.07%
[17]
  viability, T/C: 0.38%
[18]
  viability, T/C: 0.47%
[19]
  viability, T/C: 0.72%
[20]
  viability, T/C: 0.9%
[21]
  viability, T/C: 0.83%
[22]
  viability, T/C: 0.52%
[23]
  viability, T/C: 0.66%
[24]
  viability, T/C: 1.17%
[25]
  viability, T/C: 1%
[26]
  viability, T/C: 0.97%
[27]
  viability, T/C: 0.71%
[28]
  viability, T/C: 0.83%
[29]
  viability, T/C: 1.25%
[30]
  viability, T/C: 0.81%

## COc1cc(C)[nH]c(=O)c1CN1CCc2c(Cl)cc(C(OC)C3COC3)c(Cl)c2C1=O (stereo not given) + CC[C@@]1(O)C(=O)OCc2c1cc1n(c2=O)Cc2cc3c(CN(C)C)c(O)ccc3nc2-1
Second compound 0.003 µM
  IC50: > 10000 nM
Second compound 0.00949 µM
  IC50: 44.3 nM
Second compound 0.03 µM
  IC50: < 31.6 nM
Second compound 0.0949 µM
  IC50: < 31.6 nM
Second compound 0.3 µM
  IC50: < 31.6 nM
[1]
  viability, T/C: 97.8%
[2]
  viability, T/C: 94.2%
[3]
  viability, T/C: 94.5%
[4]
  viability, T/C: 80.2%
[5]
  viability, T/C: 84.6%
[6]
  viability, T/C: 79.1%
[7]
  viability, T/C: 61.2%
[8]
  viability, T/C: 23.1%
[9]
  viability, T/C: 19.7%
[10]
  viability, T/C: 23.1%
[11]
  viability, T/C: 20.5%
[12]
  viability, T/C: 17.4%
[13]
  viability, T/C: 2.26%
[14]
  viability, T/C: 1.33%
[15]
  viability, T/C: 1.49%
[16]
  viability, T/C: 1.03%
[17]
  viability, T/C: 0.89%
[18]
  viability, T/C: 1.35%
[19]
  viability, T/C: 1.49%
[20]
  viability, T/C: 1.42%
[21]
  viability, T/C: 1.65%
[22]
  viability, T/C: 1.41%
[23]
  viability, T/C: 1.22%
[24]
  viability, T/C: 0.83%
[25]
  viability, T/C: 1.31%
[26]
  viability, T/C: 1.63%
[27]
  viability, T/C: 1.29%
[28]
  viability, T/C: 1.18%
[29]
  viability, T/C: 1.75%
[30]
  viability, T/C: 0.92%

## COc1ccc([C@@H](O)c2cc(-c3ncnc4cc(N5CCOCC5)ccc34)c(F)cc2Cl)nn1 + CC[C@@]1(O)C(=O)OCc2c1cc1n(c2=O)Cc2cc3c(CN(C)C)c(O)ccc3nc2-1
Second compound 0.003 µM
  IC50: 3600 nM
Second compound 0.00949 µM
  IC50: < 31.6 nM
Second compound 0.03 µM
  IC50: < 31.6 nM
Second compound 0.0949 µM
  IC50: < 31.6 nM
Second compound 0.3 µM
  IC50: < 31.6 nM
[1]
  viability, T/C: 112%
[2]
  viability, T/C: 109%
[3]
  viability, T/C: 109%
[4]
  viability, T/C: 80.8%
[5]
  viability, T/C: 57.8%
[6]
  viability, T/C: 5.72%
[7]
  viability, T/C: 18.5%
[8]
  viability, T/C: 19%
[9]
  viability, T/C: 34.5%
[10]
  viability, T/C: 10.9%
[11]
  viability, T/C: 4.32%
[12]
  viability, T/C: 1.55%
[13]
  viability, T/C: 0.99%
[14]
  viability, T/C: 1.23%
[15]
  viability, T/C: 0.9%
[16]
  viability, T/C: 0.66%
[17]
  viability, T/C: 0.4%
[18]
  viability, T/C: 0.33%
[19]
  viability, T/C: 0.86%
[20]
  viability, T/C: 0.83%
[21]
  viability, T/C: 0.77%
[22]
  viability, T/C: 1.43%
[23]
  viability, T/C: 0.37%
[24]
  viability, T/C: 0.32%
[25]
  viability, T/C: 0.92%
[26]
  viability, T/C: 1.06%
[27]
  viability, T/C: 0.96%
[28]
  viability, T/C: 0.94%
[29]
  viability, T/C: 1.01%
[30]
  viability, T/C: 0.26%

## [2H]c1nc(C)nc([2H])c1-c1cc(NC[C@@H](C)c2cccc3c(C(=O)NC)ccnc23)ncn1 + CC[C@@]1(O)C(=O)OCc2c1cc1n(c2=O)Cc2cc3c(CN(C)C)c(O)ccc3nc2-1
Second compound 0.003 µM
  IC50: 8430 nM
Second compound 0.00949 µM
  IC50: < 31.6 nM
Second compound 0.03 µM
  IC50: < 31.6 nM
Second compound 0.0949 µM
  IC50: < 31.6 nM
Second compound 0.3 µM
  IC50: < 31.6 nM
[1]
  viability, T/C: 65.3%
[2]
  viability, T/C: 63.1%
[3]
  viability, T/C: 49.7%
[4]
  viability, T/C: 65.6%
[5]
  viability, T/C: 51%
[6]
  viability, T/C: 48.1%
[7]
  viability, T/C: 4.11%
[8]
  viability, T/C: 1.98%
[9]
  viability, T/C: 1.95%
[10]
  viability, T/C: 1.63%
[11]
  viability, T/C: 2.52%
[12]
  viability, T/C: 1.58%
[13]
  viability, T/C: 0.8%
[14]
  viability, T/C: 1.15%
[15]
  viability, T/C: 1.33%
[16]
  viability, T/C: 0.93%
[17]
  viability, T/C: 1.82%
[18]
  viability, T/C: 1.19%
[19]
  viability, T/C: 1.46%
[20]
  viability, T/C: 0.76%
[21]
  viability, T/C: 1.4%
[22]
  viability, T/C: 0.83%
[23]
  viability, T/C: 1.25%
[24]
  viability, T/C: 1.69%
[25]
  viability, T/C: 1.19%
[26]
  viability, T/C: 1.37%
[27]
  viability, T/C: 0.88%
[28]
  viability, T/C: 1.14%
[29]
  viability, T/C: 0.92%
[30]
  viability, T/C: 0.98%
